Measured values: US7384657B2, “Composition of natural herb extract for treating cardiovascular disease and its method of preparation thereof” (priority 2004, dated 2008)
“Also recorded” adds a separate entry of the source. Where two headings read alike, the source gives them in different places.

How the values were obtained:
isolated heart = test: isolated heart: coronary blood flow, fibrinolysis
Excerpt: (§1) The properties of Danshensu are studied.

[1] = toleration time in anoxic state in mice; format: in vivo
Excerpt: as §1

[2] = pituitary myocardial ischemia in rats, electrocardiac abnormality; format: in vivo
Excerpt: as §1

[3] = internal distribution of Danshensu by HPLC after intravenous Danshen preparation; format: in vivo, domestic rabbit; settings: after i.v. Danshen preparation
Experimental: HPLC is used to study the domestic rabbit's internal distribution and content of the Chinese Danshen preparation's Danshensu. […] Adrenal tissue's average is 14.15 μg/g (+0.33), liver's tissue average 17.69 μg/g (+4.44), lung's tissue average 19.73 μg/g (+4.00), heart's tissue average 12.30 μg/g (+2.18), brain's tissue average 5.45 μg/g (+0.60) and spleen's tissue average 4.66 μg/g (+0.68).

[4] = pharmacokinetics of Danshensu after auricular vein injection; format: in vivo, rabbits; settings: 30 mg/kg i.v.
Experimental: Pharmacokinetics of Danshenu in the biological body is studied. After the selected 5 rabbits' auricular veins are injected with Danshensu (injection of 30 mg/kg), blood is drawn regularly every 15, 30, 60, 90, 120 and 150 minutes. Obtain blood plasma and manipulate like before. Determine concentration of the blood medication. Use blank plasma for controlling. According to the mean from the experimental data, with the use of the logarithm and time of Danshensu concentration, create chart which is a straight line.

[5] = tested on: isolated pig's coronary artery; test: isolated pig's coronary artery perfusion (modified Oglatree preparation)
Excerpt: as §1
Effect of Danshensu [β-(3,4)-dihydroxyphenyl lactic acid] upon the isolated pig's coronary artery is studied. […] The method, which is different from the method of Oglatree isolated coronary artery preparation, is to have both ends of the isolated pig's coronary artery segment ligated to the perfusion cannula.
Test the same specimen by successively giving it 3 crescendo doses of morphine hydrochloride. Record the largest titer of P after each administration. Using Krbs-Henselait liquid to douche the perfusion system 3 times. When the basic line returns to normal, the effect is very obvious after the application of Danshensu (causing the medical concentration in the perfusion system turning into […]). Repeatedly administrate the same 3 crescendo doses of morphine hydrochloride successively like above. Observe the effect of Danshensu on the systole of coronary artery caused by morphine. Again, after the above-mentioned doses of Danshensu are applied, administrate repeatedly 4 crescendo doses of hydrochloric propanol. Observe the effect of Danshensu on the coronary artery systole caused by propanol. The sequence of administration resembles the above. In addition, after the application of Danshensu, repeat the administration by giving 3 crescendo doses of KCI and 3 crescendo doses of reserpine. […]

[6] = dog model having myocardial infarction; format: in vivo
Excerpt: as §1

[7] = pharmacokinetics of oxymatrine and matrine in mice
solubility = test: solubility
Experimental: Matrine is also called matricaria. Its molecular formula is C15H24N2O and its molecular weight is 248.36. It has four isomers: α, β, γ, and δ isomers. α-matrine is the one commonly seen. It is a needle or rhombohedral crystal, having a melting point 76° C. and [α]D+39.1° (H2O).
Oxymatrine has a molecular formula C15H24N2O2 and a molecular weight 264.36. It is a colorless columnar crystal (Me2CO), melting point 162° C. (hydrate), 207° C. (anhydrate), [α]D+47.7° (C2H5OH). […] It can change to matrine through reaction with SO2.

[8] = cited from earlier work
[9] = 100 mg/kg i.v.
Experimental: Study of pharmacokinetics of Matrine is carried out. […] Rats are given intravenous injection of oxymatrine 100 mg/kg.

[10] = puerarin in dog with acute myocardial ischemia / coronary blockage; format: in vivo
Experimental: Effect of Puerarin upon the heart is studied. The main effect of Puerarin Pur is to change the myocardial ischemia. Apply intervenous injection of puerarin to the dog which contracts the acute myocardial ischemia. […] After the aortic pressure is adjusted to the level of pre-administration, tension-time index and the rising speed of left ventricular pressure also return to the level of pre-administration.
5 minutes after the midpoint of the anterior branch of the dog's coronary artery encountering acute blockage, intravenous injection of puerarin 20 mg/kg is administrated. […] The function lasts 3˜4 hours. It has no effect on LVSD. 15 minutes after the administration, the ST drops obviously. […] Electrocardiographic index reduces clearly and the pulmonary incarceration has not risen.

[11] = puerarin drops in patients of acute myocardial infarction; format: in vivo, human
[12] = excretion of oral puerarin in normal person; format: in vivo, human
Experimental: (§2) Metabolism of medication of Puerarin is studied. 24 hours after the rats taken puerarin orally, 1.85% and 35.7% excreted as urine and stool. After the intravenous injection, 37.62%, 7.39% and 3.65% are secreted from the urine, stool and bile respectively. Absorption, by orally taking, is very little. 36 hours after puerarin is orally taken by normal person, only 0.78% […] secrete from the urine; 72 hours after the oral taking, 73.3% secrete from the stool.

[13] = arrhythmia caused by chloroform and the adrenal gland; format: in vivo, domestic rabbit
Excerpt: The effect of puerarin on the rhythm of heart is examined. […] Obviously, it also […] the mean of ventricular premature heartbeat and ventricular tachycardia caused by ouabin.

[14] = teratogenicity and mutagenicity in pregnant animals and male germ cells; format: in vivo, rats; settings: 50 and 150 mg/kg
Experimental: Select 50 pregnant rats. Observe and analyze 450 pregnant mice. Choose 50 and 150 mg/kg as puerarin dosage. […] The deformation of appearance, organ or bone is not found in all the examined fetal mice. It proves neither the puerarin nor the solvent has mutagenic activity on the pregnant mice.

adenylate cyclase = test: activation of dissolved adenylate cyclase; format: biochemical
Excerpt: (§3) The effecter of β-receptor is the adenylate cyclase (AC). Excitant of the β-receptor can enable the AC to activate and the antagonist can cause it to inhibit. […] It points out puerarin is an antagonist of one type of β-receptors. It has the selective action on the heart's β-receptor. It can achieve various curative effects on the arrhythmia.

[15] = mice and dog; cited from earlier work
[16] = absorption, distribution and excretion of puerarin in rats; format: in vivo
Excerpt: The pharmacokinetics of puerarin is also studied. Absorption and distribution of medication of Puerarin are studied. […] External experiment proves puerarin's destruction in the enterogastric tract is very minor, but can be metabolized by the tissue of blood, liver, kidney and etc. It is also able to integrate with the liver, kidney, lung and plasma protein. Pharmacokinetics parameter of the rats's intravenous injection indicates puerarin's distribution in the body is vast and clears up fast. It is not easy to store.
as §2

[17] = tested on: polychromatic erythrocytes; test: polychromatic erythrocytes micronucleus; format: in vivo; settings: every dosage group
[18] = single intravenous injection 5 mg/kg; cited from earlier work
[19] = puerarin: patient's blood 6-K-PGF1a, HDL, TXB2; format: in vivo, human; settings: patients
Excerpt: Puerarin can even heighten the patient's blood 6-K-PGF1a [6-acetone-PGF1a (prostaglandin-stable metabolism product)] and High Density Lipid (HDL) level. […] As a result, it enables the coronary artery and the peripheral blood vessel to expand, and therefore, it resists angina pectoris, reduces blood pressure, lowers myocardial oxygen consumption and improves the Ischemic ECG and etc.

[20] = tested on: TA97, TA98, TA100 and TA102; test: Ames test; format: cell-based, typhoid Salmonella bacillus; settings: 1, 5, 50, 500, 5000 μg per dish, S9 and non-S9
Experimental: Use TA97, TA98, TA100 and TA102 as testing strain; puerarin 1, 5, 50, 500, and 5000 μg as dish. In the experiment of S9 and non-S9, its reverse colonial mutation setting figure is basically the same, that is, mutation rate (MR)<2. It has no dosage-response relation. […] Use human microblood nutrient for culturing. Add human blood to the puerarin injection. Under the condition of isolated body, add S9 activation system, then, culture for 53 hours. […] Therefore, hereditary toxicity has not been indicated.

β-receptor = test: radioactive ligand analysis on myocardial membrane; format: binding, rats
Excerpt: as §3

[21] = tested on: artery's endothelial cell; test: arterial endothelial cell culture; format: cell-based; settings: puerarin 250 μg/ml, 6 hours, 36° C.
Experimental: The effect of puerarin on the arterial endothelial cell is also examined. Puerarin has very outstanding effect on the artery's endothelial cell. Add puerarin (250 μg/ml) to the cellular fluid, but no addition of puerarin in the control group. After 6 hours of culture at 36° C., determine the content of carboxylic proline in both the internal and the external fluid of the endothelial cells respectively. […] The content of carboxylic proline, in the […], drops to Experiment Group's 2.70±0.06 μg/ml and 2.43±0.21 μg/ml from 3.35±0.05 μg/ml and 2.68±0.15 μg/ml in the Control group's internal and external endothelial cells. With regards to osamine polysaccharide, it drops to Experiment Group's 0.95±0.12 μg/ml and 0.68±0.15 μg/ml from 1.77±0.12 μg/m and 1.57±0.08 μg/ml in the internal fluid of Control group. […] It regulates the permeability of the water solubility and the substance of plasma molecule. Besides having an effect on the selective barrier action, its complex enzyme system can synthesize and secrete many active substances such as PGI2.

[22] = within 24 hours of intramuscular oxymatrine 100 mg/kg

## O=C(O)[C@H](O)Cc1ccc(O)c(O)c1 [Danshensu, D(+) β-(3,4-dihydroxyphenyl) lactic acid]
Isolated heart
  fibrinolysis: relatively weaker function in fibrinolysis
Isolated heart; isolated heart
  blood flow of coronary artery: increasing the blood flow of coronary artery
[1]
  toleration time in anoxic state: prolong the toleration time in anoxic state
[2]
  electrocardiac abnormality of pituitary myocardial ischemia: restore the electrocardiac abnormality
[3]
  Danshensu content, adrenal tissue average: 14.15 µg/g
  Danshensu content, brain tissue average: 5.45 µg/g
  Danshensu content, heart tissue average: 12.30 µg/g
  Danshensu content, liver tissue average: 17.69 µg/g
  Danshensu content, lung tissue average: 19.73 µg/g
  Danshensu content, spleen tissue average: 4.66 µg/g
[4]
  pharmacokinetic model: single ventricular model
[4]; rabbit, in vivo, iv, 5 rabbits, read-out: biological half-life t1/2
  half-life: 16.6 min
[5]; Danshensu 1×10^6 g/ml in perfusion system, 31 strips, 40 experiments
  P: -2.54±0.48 mmHg
[5]; isolated pig coronary artery
  dilatation of coronary artery smooth muscle: dilate the smooth muscle of coronary artery; also recorded: obvious dilatation effect
[6]
  area suffered from myocardial infarction: the area suffered from myocardial infarction is reduced
  heart function: the heart function is improved

## O=C1CCC[C@@H]2[C@H]3CCC[N+]4([O-])CCC[C@@H](CN12)[C@@H]34 (stereo partly shown) [Oxymatrine]
[7]; stomach perfusion
  transformation in the gastrointestinal tract: gradually transforms into matrine in the gastrointestinal tract
[7]; [22]
  excretion of oxymatrine: 5.1%
  matrine found in the emiction of urine: 20.6%
solubility
  solubility: soluble in water, chloroform and ethanol, but nearly insoluble in ether, methyl ether and petroleum ether
[8]; intramuscular injection
  LD50: 256.74 ± 573.6 mg/kg
[8]; intravenous injection
  LD50: 144.2 ± 22.8 mg/kg
[9]
  distribution and elimination: distribution is wide and the elimination fast

## Puerarin
[10]; 20 mg/kg i.v., 5 minutes after blockage
  lowering of LVSD: 10.14%
[10]; 20 mg/kg i.v., 6 hours later
  myocardial infarction scope (N-BT): reduces significantly
[10]; intravenous injection
  aortic pressure: lower the aortic pressure
[10]; ischemia and reperfusion
  release of myocardial CPK: lowers the release of myocardial CPK
[11]; 30 minutes and 2 hours after (p<0.01, P=0.05)
  myocardial index: clearly reduces
[11]; human, in vivo
  genesis rate of infarction expansion: obviously lowers
[12]; 36 hours
  secreted from the urine: 0.78%
[12]; 72 hours
  secreted from the stool: 73.3%
[13]
  arrhythmic time: shorten the arrhythmic time
[14]
  deformation of appearance, organ or bone of fetal mice: not found
  survival fetal number, absorption fetal number, weight, length, tail length versus control: no obvious difference
Adenylate cyclase
  adrenal gland's activation of dissolved adenylate cyclase: completely inhibit
[15]
  pharmacokinetic model: 3-ventricle open model
[16]; intravenous injection
  secreted from the bile: 3.65%
  secreted from the stool: 7.39%
  secreted from the urine: 37.62%
  tissue content: the content in kidney is highest, blood plasma takes second place and the brain has lesser
[16]; oral
  oral absorption: absorbed faster but not complete
[16]; oral, 24 hours
  excreted as stool: 35.7%
  excreted as urine: 1.85%
[16]; oral, after 24 hours
  medication volume retrieved from gastrointestinal substance and stool: 37.3 % of the volume administrated
[17]
  occurrence rate of polychromatic erythrocytes micronucleus versus negative contrast: no obvious difference
[18]
  pharmacokinetic model: 2-ventricle open model
[19]
  blood 6-K-PGF1a and High Density Lipid (HDL) level: heighten
  ratio of TXB2/6-K-PGF1a: reduces the ratio
[20]
  mutation rate (MR): < 2
β-receptor; conjugated competition
  competition with the labeled ligand: able to compete with the labeled ligand
β-receptor; rats's myocardial membrane
  maximum combination capacity of the β-receptor: clearly reduce the maximum combination capacity
[21]
  carboxylic proline, external fluid of endothelial cells: 2.43 ± 0.21 µg/mL
  carboxylic proline, internal fluid of endothelial cells: 2.70 ± 0.06 µg/mL
  osamine polysaccharide, first value (internal fluid): 0.95 ± 0.12 µg/mL
  osamine polysaccharide, second value: 0.68 ± 0.15 µg/mL
